# Experimental data taken from publication PMC9065877, “Safety, tolerability and pharmacokinetics of the oligomer modulator anle138b with exposure levels sufficient for therapeutic efficacy in a murine Parkinson model: A randomised, double-blind, placebo-controlled phase 1a trial” (EBioMedicine, 2022).
# Like-named read-outs stand apart in the source and are kept apart here.
# Test: Food effect study (FES), 150 mg single dose fed vs fasted, pharmacokinetics in healthy subjects, plasma
# Format: in vivo, human
# Conditions: for Cmax / AUC(0-t): po, 150 mg, FES 150 mg single oral dose, geometric mean (CV%); for AUC(0-t): read-out: AUC(0-24)
# Protocol: This was a single-centre, double-blind, randomised, placebo-controlled single ascending dose (SAD) and multiple ascending dose (MAD) study of anle138b in doses of up to 300 mg per day in healthy subjects. In addition, the effect of food (FES) on the PK of anle138b in healthy subjects was examined using single doses of 150 mg. Participants were recruited from Quotient Sciences (Nottingham, UK) volunteer database.
# This dose was administered either i) after a standard FDA-approved high-fat breakfast or ii) in the fasted state i.e., fasted from all food and drink (except water) for a minimum of 8 h prior to dosing. In total, one cohort of 12 subjects was randomised in a 1:1 ratio to 2 treatment sequences (fed→fasted) or (fasted→fed). A minimum washout of at least 5 half-lives of anle138b between each dose was assured.
# Secondary outcome measures were the oral PK of single (SAD) and multiple (MAD) ascending doses of anle138b in the fasted state as well as the effect of co-administration with food on the PK of anle138b. To this end PK blood samples were taken at day 1 (and for MAD day 7) pre-dose and at 0·5, 1, 1·5, 2, 3, 4, 6, 8, 10, 12, 16 and 20 h post-dose, at days 2 to 6 pre-dose only (MAD) and 24, 30, 36 and 48 h post final dose. Analysis of anle138b in plasma was done at Aptuit, an Evotec company, in Verona, Italy. Time point of last quantifiable data was seen to increase with an increase in dose as follows: SAD: from the 50mg dose (subjects ranged between 8-24h) to the 300mg dose (subjects ranged between 36-48h). MAD: from the 100mg dose (subjects ranged between 8-36h) to the 300mg dose (subjects ranged between 20-48h). In FES, subjects ranged between 24-48h.
# The study was exploratory and no formal sample size calculation was made. Based on experience from previous studies of similar design, eight subjects per cohort were enrolled for parts 1 (SAD) and 2 (MAD) and a total of twelve subjects for part 3 (FES). Populations and analysis sets were determined for safety and PK data after database lock using the criteria defined in the reporting and analysis plan. The safety population and safety analysis set for SAD and MAD were defined after database lock but prior to study unblinding. Statistical analysis and production of summary tables, figures and listings for all safety data (AEs, vital signs, ECGs and safety laboratory assessments) including changes from baseline as required in this study were performed using the statistical package SAS (v9·4). Additional statistics was provided for PK-related data including coefficient of variation (CV%), geometric mean, geometric CV%, and the number n of subjects that were included in the natural logarithmic transformation). In SAD and MAD, dose proportionality was assessed. Formal statistical analysis was performed on the log-transformed PK parameters AUC(0-last), AUC(0-inf), and Cmax for SAD (day 1), and AUC(0-tau) and Cmax for MAD (day 1 and day 7) to assess dose proportionality using the following power model: loge (AUC or Cmax) = µ + βx loge (dose). The estimate obtained for β is a measure of dose proportionality. The estimate of β together with its 90% confidence interval (CI) (βl, βu) was used to quantify the degree of non-proportionality. In MAD, formal statistical analysis was performed on the PK parameters AUC(0-tau) and Cmax to assess dose accumulation. Log-transformed AUC(0-tau) and Cmax was subjected to a mixed-effects model with treatment (dose level), day (day 1 or 7) and treatment-by-day interaction as fixed effects and subject as a random effect. The adjusted means obtained from the model, including differences for each comparison of interest and the associated 90% CIs, was back-transformed on the log scale to obtain adjusted geometric means, adjusted geometric mean ratios (GMRs) and 90% CIs of the ratio. The GMRs and 90% CIs were provided for each treatment and overall, i.e., day 7/day 1. […]
# [1] = human, plasma, fed (high-fat breakfast)
structure (smiles),measurement,setting,value
"Brc1cccc(-c2cc(-c3ccc4c(c3)OCO4)n[nH]2)c1 [anle138b, 3-(1,3-benzodioxol-5-yl)-5-(3-bromophenyl)-1H-pyrazole]",Time point of last quantifiable data (range of subjects),FES 150 mg,24 to 48 h
same,Effect of food on Cmax,"FES 150 mg, fed vs fasted",decreased by about half
same,Food effect on AUC,"FES 150 mg, fed vs fasted",clinically insignificant
same,bioavailability,"human, plasma, oral, FES 150 mg, 90% CI: 61%, 88%, read-out: Dose bioavailable in the fed state compared to the fasted state",~74%
same,Cmax,"human, plasma, fasted",442 ng/mL
same,AUC(0-t),"human, plasma, fasted",896 ng·h/mL
same,Cmax,[1],196 ng/mL
same,AUC(0-t),[1],641 ng·h/mL
